Literature values in patent US20130281523A1, “LOW DOSE CANNABINOID MEDICAMENTS” (priority 2010, published 2013).

System: rat model of sleep apnea
Conditions: 10 mg/kg intraperitoneal injection

CCCCCc1cc(O)c2c(c1)OC(C)(C)[C@@H]1CCC(C)=C[C@@H]21 [Dronabinol, Delta-9-tetrahydrocannabinol]
Breathing cessation during non-REM (NREM) sleep: reduced breathing cessation
